Assay results published in patent publication US20230158031A1, “Treatment of Acute Respiratory Distress Syndrome and Other Disorders Involving Cytokine Storm Using BTK Inhibitors” (Principia Biopharma Inc., priority 2020, published 2023).

How the values were obtained:
[1] = system: BioMAP human primary cell-based co-culture systems; assay: BioMAP Diversity PLUS Panel; conditions: FIG. 8
Source text: The BioMAP Diversity Plus Panel (FIG. 7) provides broad phenotypic profiles for pharmaceutically active agents. The panel uses 12 individual BioMAP human primary cell-based co-culture systems to predictively model drug effects on multiple tissues and disease states, providing 148 clinically relevant biomarker readouts. […] The LDLR gene is associated with the low-density lipoprotein receptor, which binds low-density lipoproteins that carry cholesterol in blood. […] Decreased MCP-1, sTNFα, eotaxin-3, ICAM-1, IL-la, and IL-8 and increased sPGE2 is associated with PRN1008's inflammation related activities. Decreased CD38, sIgG, sIL-17A, sIL-2, sIL-6, and M-CSF and increased CD69 are associated with PRN1008's immunomodulatory activities. Decreased MMP-9, uPA, and PAI-I is associated with PRN 1008's tissue remodeling activities. Decreased thrombomodulin (TM) and modulated tissue factor (TF) is associated with PRN1008's hemostasis-related activities. Thus, the BioMAP Diversity Plus Panel data for PRN1008 supports its anti-inflammatory and cytokine inhibition mechanisms.

[2] = system: anti-GBM glomerulonephritis; assay: Mouse anti-GBM glomerulonephritis model; format: in vivo; conditions: for kidney pathology: kidney histology after Study Day 10, relative to Dex 1 mg/kg QD
Procedure: The mouse anti-GBM glomerulonephritis model involves antibody mediated autoimmunity, and the model is histologically and mechanistically similar to glomerulonephritis in humans. The model also includes kidney deposition of immune complexes (IC), targeting glomerular basement membrane. The efficacy of Compound (IB) (also referred to as PRN1008) relative to the corticosteroid dexamethasone (Dex) was tested in a mouse anti-GBM glomerulonephritis model according to the design shown in FIG. 1. Briefly, to induce glomerulonephritis, mice were pre-sensitized with sheep IgG/FCA (Study Day −5). Five days later (Study Day 0), the mice received anti-GBM sheep IgG. Treatment with vehicle, Compound (IB), or Dex with various dosage regimes (Compound (IB): 10 mg/kg, 20 mg/kg, or 40 mg/kg QD or 20 mg/kg BID; Dex: 1 mg/kg QD; Vehicle: QD or BID) began at Study Day −1, one day prior to injection with anti-GBM sheep IgG. Treatment continued until Study Day 10, for […] treatment in total. Urine protein analysis was conducted on Study Days −6, −4, −1, 1, 3, 6, 8, and 10. Following Study Day 10, mice serum BUN levels were analyzed as a measure of kidney function, and kidney histology was performed.

neutrophils [3] = assay: Neutrophil intraluminal crawling following fMLP-mediated arrest in vivo (intravital microscopy, cremaster); conditions: compared to vehicle control; cremaster superfused with fMLP (10 μM), time-lapse microscopy 2 h; FIG. 9A
Source text: Following post-adhesion strengthening, neutrophils undertake Mac-1 (an integrin) dependent migratory activity on the vascular side of the vessel wall prior to transmigration ([…] and Zarbock 2013). Previous studies have highlighted the importance of this step for successful neutrophil recruitment (Phillipson et al. 2006). To investigate the effects of Btk inhibition on this step of the leukocyte recruitment cascade, intraluminal crawling following fMLP (N-formylmethionine-leucyl-phenylalanine)-mediated arrest in vivo was investigated. Using intravital microscopy, intravascular crawling of neutrophils was examined as described previously (Phillipson et al. 2006). Briefly, anti-Gr-1 antibody (clone RB6-8C5), labelled with Alexa Fluor 488 (Molecular Probes, Eugene, Oreg., USA), was injected via the cannulated carotid artery prior to the experiment. Following preparation and exteriorization, the cremaster was superfused with fMLP (10 μM) and time-lapse microscopy was performed for 2 h. The number of adherent cells was determined.

neutrophils [4] = assay: Neutrophil recruitment to the necrotic zone following sterile liver injury (heat injury); format: in vivo; conditions: 4 h after heat injury; spinning disc time-lapse microscopy; FIG. 9B
[5] = inflammation related activities

## CC(C)(C=C(C#N)C(=O)N1CCC[C@@H](n2nc(-c3ccc(Oc4ccccc4)cc3F)c3c(N)ncnc32)C1)N1CCN(C2COC2)CC1 [Compound (IB), 2-[(3R)-3-[4-amino-3-(2-fluoro-4-phenoxy-phenyl)pyrazolo[3,4-d]pyrimidin-1-yl]piperidine-1-carbonyl]-4-methyl-4-[4-(oxetan-3-yl)piperazin-1-yl]pent-2-enenitrile]
[1]; BioMAP Profile
  LDLR: decreased
  anti-proliferative activity, B cells: Anti-proliferative activities
  anti-proliferative activity, T cells: Anti-proliferative activities
  anti-proliferative activity, coronary artery smooth muscle cells: Anti-proliferative activities
  anti-proliferative activity, endothelial cells: Anti-proliferative activities
  anti-proliferative activity, fibroblasts: Anti-proliferative activities
[1]; hemostasis-related activities
  thrombomodulin (TM): Decreased
  tissue factor (TF): modulated
[1]; immunomodulatory activities
  CD38: Decreased
  CD69: increased
  M-CSF: Decreased
  sIL-2: Decreased
  sIL-6: Decreased
  sIL-17A: Decreased
  sIgG: Decreased
[1]; [5]
  ICAM-1: Decreased
  IL-8: Decreased
  IL-la: Decreased
  MCP-1: Decreased
  eotaxin-3: Decreased
  sPGE2: increased
  sTNFα: Decreased
[1]; tissue remodeling activities
  MMP-9: Decreased
  PAI-I: Decreased
  uPA: Decreased
[2]; 10, 20 or 40 mg/kg QD or 20 mg/kg BID, FIG. 5
  kidney weight gain (a surrogate for kidney inflammation): dose dependent inhibition
[2]; 10, 20 or 40 mg/kg QD or 20 mg/kg BID, Study Day -1 to 10, FIG. 2
  serum blood urea nitrogen (BUN) levels: dose dependent inhibition
[2]; 10, 20 or 40 mg/kg QD or 20 mg/kg BID, Study Day -1 to 10, FIG. 3
  severe proteinuria: dose dependent inhibition
[2]; FIG. 6
  kidney pathology: reduced kidney pathology
[2]; FIG. 6, listed as PRN1008
  kidney pathology: significantly reduced kidney pathology, superior to a steroid comparator (Dex)
[2]; urine protein analysis Study Days -6 to 10, FIG. 4
  proteinuria during the study: reduced proteinuria

## CC(C)(C)C=C(C#N)C(=O)N1CCC[C@@H](n2nc(-c3ccc(Oc4ccccc4)cc3F)c3c(N)ncnc32)C1 [Compound (IA), (R)-2-(3-(4-amino-3-(2-fluoro-4-phenoxyphenyl)-1H-pyrazolo[3,4-d]pyrimidin-1-yl)piperidine-1-carbonyl)-4,4-dimethylpent-2-enenitrile]
Neutrophils [3]
  migratory activity of neutrophils (arrested cells that crawled): severely decreased
Neutrophils [4]
  neutrophil recruitment following sterile liver injury: abolish neutrophil recruitment
